Source: ChEMBL document CHEMBL5625192, “Discovery of Ibrutinib-based BTK PROTACs with in vivo anti-inflammatory efficacy by inhibiting NF-κB activation” (Eur J Med Chem, 2023)
Calls of active or inactive are those of the source. No cut-off for these calls is given here.

Experiments:
Assay type in all cases: cell-based
[1] = target: T1, Protein cereblon/Tyrosine-protein kinase BTK (Homo sapiens, UniProt Q06187+Q96SW2); experiment: PROTAC activity at CRBN/BTK in human Ramos cells assessed as induction of BTK degradation at 100 nM incubated for 24 hrs by Western blot analysis relative to control
Target sequence in this assay (Q06187 2-659 limits assumed): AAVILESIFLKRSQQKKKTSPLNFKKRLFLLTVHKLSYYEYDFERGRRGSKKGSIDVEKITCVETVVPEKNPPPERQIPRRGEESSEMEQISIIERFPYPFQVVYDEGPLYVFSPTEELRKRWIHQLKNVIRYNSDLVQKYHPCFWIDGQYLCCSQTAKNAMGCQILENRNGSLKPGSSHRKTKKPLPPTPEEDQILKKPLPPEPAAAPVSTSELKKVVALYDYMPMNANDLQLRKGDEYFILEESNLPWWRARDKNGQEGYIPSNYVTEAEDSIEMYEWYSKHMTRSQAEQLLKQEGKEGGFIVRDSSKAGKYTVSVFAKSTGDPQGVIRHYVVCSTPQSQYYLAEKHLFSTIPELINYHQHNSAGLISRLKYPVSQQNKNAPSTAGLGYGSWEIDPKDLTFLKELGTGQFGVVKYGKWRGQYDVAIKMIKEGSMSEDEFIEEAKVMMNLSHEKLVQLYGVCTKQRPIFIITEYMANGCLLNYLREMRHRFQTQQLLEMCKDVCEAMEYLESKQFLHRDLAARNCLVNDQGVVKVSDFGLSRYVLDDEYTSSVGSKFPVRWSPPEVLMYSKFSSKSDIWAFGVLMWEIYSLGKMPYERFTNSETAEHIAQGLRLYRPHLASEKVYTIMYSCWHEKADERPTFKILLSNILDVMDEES
Target sequence in this assay (Q96SW2 whole entry partner): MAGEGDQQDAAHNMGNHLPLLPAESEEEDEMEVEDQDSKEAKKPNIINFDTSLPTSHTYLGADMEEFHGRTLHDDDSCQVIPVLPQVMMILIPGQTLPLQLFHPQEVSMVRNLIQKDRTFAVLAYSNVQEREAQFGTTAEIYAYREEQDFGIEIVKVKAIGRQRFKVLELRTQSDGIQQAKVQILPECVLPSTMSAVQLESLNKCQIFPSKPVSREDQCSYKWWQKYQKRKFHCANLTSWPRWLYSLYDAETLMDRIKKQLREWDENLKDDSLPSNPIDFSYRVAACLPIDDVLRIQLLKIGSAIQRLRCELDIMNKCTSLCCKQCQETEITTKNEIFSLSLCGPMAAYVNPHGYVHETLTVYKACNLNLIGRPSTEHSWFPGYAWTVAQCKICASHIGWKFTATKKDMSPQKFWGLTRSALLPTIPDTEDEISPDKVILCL

[2] = target: T1, Protein cereblon/Tyrosine-protein kinase BTK; experiment: PROTAC activity at CRBN/BTK in human Ramos cells assessed as induction of BTK degradation at 100 nM incubated for 24 hrs by Western blot analysis
Target sequence in this assay (Q06187 2-659 limits assumed): as the sequence (Q06187 2-659 limits assumed) above
Target sequence in this assay (Q96SW2 whole entry partner): as the sequence (Q96SW2 whole entry partner) above

[3] = target: T1, Protein cereblon/Tyrosine-protein kinase BTK; experiment: PROTAC activity at CRBN/BTK in human MINO cells assessed as hook effect at >10000 nM incubated for 24 hrs by Western blot analysis
Target sequence in this assay (Q06187 2-659 limits assumed): as the sequence (Q06187 2-659 limits assumed) above
Target sequence in this assay (Q96SW2 whole entry partner): as the sequence (Q96SW2 whole entry partner) above

[4] = target: T1, Protein cereblon/Tyrosine-protein kinase BTK; experiment: PROTAC activity at CRBN/BTK in human Ramos cells assessed as induction of BTK degradation incubated for 24 hrs by Western blot analysis
Target sequence in this assay (Q06187 whole entry): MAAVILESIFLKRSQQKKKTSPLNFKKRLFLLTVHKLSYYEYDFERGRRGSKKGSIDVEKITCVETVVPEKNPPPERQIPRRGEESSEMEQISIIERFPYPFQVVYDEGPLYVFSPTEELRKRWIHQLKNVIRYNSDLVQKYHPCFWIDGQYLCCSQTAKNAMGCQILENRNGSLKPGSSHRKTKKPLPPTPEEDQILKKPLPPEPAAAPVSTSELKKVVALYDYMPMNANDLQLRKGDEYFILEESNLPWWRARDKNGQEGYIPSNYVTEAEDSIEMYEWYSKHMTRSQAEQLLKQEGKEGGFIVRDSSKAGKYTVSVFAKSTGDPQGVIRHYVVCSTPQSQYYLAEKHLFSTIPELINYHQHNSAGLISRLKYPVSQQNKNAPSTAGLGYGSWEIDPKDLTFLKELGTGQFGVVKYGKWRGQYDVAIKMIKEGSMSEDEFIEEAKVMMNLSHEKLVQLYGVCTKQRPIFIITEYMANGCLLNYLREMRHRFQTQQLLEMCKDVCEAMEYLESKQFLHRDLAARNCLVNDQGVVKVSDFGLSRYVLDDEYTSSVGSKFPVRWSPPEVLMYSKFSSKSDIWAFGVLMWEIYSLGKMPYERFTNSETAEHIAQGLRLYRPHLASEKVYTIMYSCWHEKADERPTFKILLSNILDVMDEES
Target sequence in this assay (Q96SW2 whole entry): as the sequence (Q96SW2 whole entry partner) above

[5] = target: T1, Protein cereblon/Tyrosine-protein kinase BTK; experiment: PROTAC activity at CRBN/BTK in human Ramos cells assessed as hook effect at 1000 nM incubated for 24 hrs by Western blot analysis
Target sequence in this assay (Q06187 2-659 limits assumed): as the sequence (Q06187 2-659 limits assumed) above
Target sequence in this assay (Q96SW2 whole entry partner): as the sequence (Q96SW2 whole entry partner) above

[6] = target: T1, Protein cereblon/Tyrosine-protein kinase BTK; experiment: PROTAC activity at CRBN/BTK in human MINO cells assessed as induction of BTK degradation by measuring maximal efficacy incubated for 24 hrs by Western blot analysis relative to control
Target sequence in this assay (Q06187 2-659 limits assumed): as the sequence (Q06187 2-659 limits assumed) above
Target sequence in this assay (Q96SW2 whole entry partner): as the sequence (Q96SW2 whole entry partner) above

[7] = target: T1, Protein cereblon/Tyrosine-protein kinase BTK; experiment: PROTAC activity at CRBN/BTK in human Ramos cells assessed as induction of BTK degradation by measuring maximal efficacy incubated for 24 hrs by Western blot analysis relative to control
Target sequence in this assay (Q06187 2-659 limits assumed): as the sequence (Q06187 2-659 limits assumed) above
Target sequence in this assay (Q96SW2 whole entry partner): as the sequence (Q96SW2 whole entry partner) above

[8] = target: T1, Protein cereblon/Tyrosine-protein kinase BTK; experiment: PROTAC activity at CRBN/BTK in human Ramos cells assessed as hook effect at 10000 nM incubated for 24 hrs by Western blot analysis
[9] = target: T1, Protein cereblon/Tyrosine-protein kinase BTK; experiment: PROTAC activity at CRBN/BTK in human MINO cells assessed as induction of BTK degradation incubated for 24 hrs by Western blot analysis
Target sequence in this assay (Q06187 whole entry): as the sequence (Q06187 whole entry) above
Target sequence in this assay (Q96SW2 whole entry): as the sequence (Q96SW2 whole entry partner) above

[10] = target: T1, Protein cereblon/Tyrosine-protein kinase BTK; experiment: PROTAC activity at CRBN/BTK in human MINO cells assessed as hook effect upto 10000 nM incubated for 24 hrs by Western blot analysis
[11] = target: T1, Protein cereblon/Tyrosine-protein kinase BTK; experiment: PROTAC activity at CRBN/BTK in human Ramos cells assessed as induction of BTK degradation at 100 nM measured after 8 hrs by Western blot analysis relative to control
[12] = target: T1, Protein cereblon/Tyrosine-protein kinase BTK; experiment: PROTAC activity at CRBN/BTK in human Ramos cells assessed as induction of BTK degradation at 100 nM measured within 4 hrs by Western blot analysis
[13] = target: T1, Protein cereblon/Tyrosine-protein kinase BTK; experiment: PROTAC activity at CRBN/BTK in human Ramos cells assessed as induction of BTK degradation at 100 nM pretreated with bafilomycin for 2 hrs followed by compound treatment and measured after 8 hrs by Western blot analysis
[14] = target: T1, Protein cereblon/Tyrosine-protein kinase BTK; experiment: PROTAC activity at CRBN/BTK in human Ramos cells assessed as induction of BTK degradation at 100 nM pretreated with MG132 for 2 hrs followed by compound treatment and measured after 8 hrs by Western blot analysis
[15] = target: T1, Protein cereblon/Tyrosine-protein kinase BTK; experiment: PROTAC activity at CRBN/BTK in human Ramos cells assessed as induction of BTK degradation at 100 nM pretreated with ibrutinib for 2 hrs followed by compound treatment and measured after 8 hrs by Western blot analysis
[16] = target: T1, Protein cereblon/Tyrosine-protein kinase BTK; experiment: PROTAC activity at CRBN/BTK in human Ramos cells assessed as induction of BTK degradation at 100 nM pretreated with pomalidomide for 2 hrs followed by compound treatment and measured after 8 hrs by Western blot analysis

Activity [1] [%]	EC50 [4] [nM]	Emax [7] [%]	SMILES	other results
28.5			Nc1ncnc2c1c(-c1ccc(Oc3ccccc3)cc1)nn2C1CCN(C(=O)CN2CCN(CCOCC(=O)Nc3ccc4c(c3)C(=O)N(C3CCC(=O)NC3=O)C4=O)CC2)CC1 (centres undefined)	
61.9			Nc1ncnc2c1c(-c1ccc(Oc3ccccc3)cc1)nn2C1CCN(C(=O)CN2CCN(C(=O)CCCC(=O)Nc3ccc4c(c3)C(=O)N(C3CCC(=O)NC3=O)C4=O)CC2)CC1 (centres undefined)	
33.6			Nc1ncnc2c1c(-c1ccc(Oc3ccccc3)cc1)nn2C1CCN(C(=O)CN2CCC(CN3CCN(CC#Cc4ccc5c(c4)C(=O)N(C4CCC(=O)NC4=O)C5=O)CC3)CC2)CC1 (centres undefined)	
			Nc1ncnc2c1c(-c1ccc(Oc3ccccc3)cc1)nn2C1CCN(CC2CCN(c3cccc4c3C(=O)N(C3CCC(=O)NC3=O)C4=O)CC2)CC1 (centres undefined)	Activity [2]: inactive
			Nc1ncnc2c1c(-c1ccc(Oc3ccccc3)cc1)nn2C1CCN(CC2CN(c3cccc4c3C(=O)N(C3CCC(=O)NC3=O)C4=O)C2)CC1 (centres undefined)	Activity [2]: inactive
39.5			Nc1ncnc2c1c(-c1ccc(Oc3ccccc3)cc1)nn2C1CCN(C(=O)CN2CCN(CC#Cc3ccc4c(c3)C(=O)N(C3CCC(=O)NC3=O)C4=O)CC2)CC1 (centres undefined)	
31.5			Nc1ncnc2c1c(-c1ccc(Oc3ccccc3)cc1)nn2C1CCN(CC2CN(CC3CN(c4ccc5c(c4)C(=O)N(C4CCC(=O)NC4=O)C5=O)C3)C2)CC1 (centres undefined)	
61.5			Nc1ncnc2c1c(-c1ccc(Oc3ccccc3)cc1)nn2C1CCN(C(=O)CN2CCN(C(=O)CCC(=O)Nc3ccc4c(c3)C(=O)N(C3CCC(=O)NC3=O)C4=O)CC2)CC1 (centres undefined)	
40			Nc1ncnc2c1c(-c1ccc(Oc3ccccc3)cc1)nn2C1CCN(C(=O)CCCN2CCN(CCOCC(=O)Nc3ccc4c(c3)C(=O)N(C3CCC(=O)NC3=O)C4=O)CC2)CC1 (centres undefined)	
91	9.37	99.4	Nc1ncnc2c1c(-c1ccc(Oc3ccccc3)cc1)nn2C1CCN(C(=O)CN2CCN(CC3CCN(c4cccc5c4C(=O)N(C4CCC(=O)NC4=O)C5=O)CC3)CC2)CC1 (centres undefined)	Activity [3]: Active; Activity [5]: Active; Emax [6]: 99.5%; Activity [8]: Active; EC50 [9]: 10.3 nM
38.9			Nc1ncnc2c1c(-c1ccc(Oc3ccccc3)cc1)nn2C1CCN(C(=O)CN2CCN(CCOCCOCC(=O)Nc3ccc4c(c3)C(=O)N(C3CCC(=O)NC3=O)C4=O)CC2)CC1 (centres undefined)	
62.7	51.1	97.8	Nc1ncnc2c1c(-c1ccc(Oc3ccccc3)cc1)nn2C1CCN(Cc2ccc(C#CC3CCN(c4ccc5c(c4)C(=O)N(C4CCC(=O)NC4=O)C5=O)CC3)nc2)CC1 (centres undefined)	Activity [8]: Active
99.7	6.11	99.7	Nc1ncnc2c1c(-c1ccc(Oc3ccccc3)cc1)nn2C1CCN(C(=O)CN2CCN(CC3CCN(c4ccc5c(c4)C(=O)N(C4CCC(=O)NC4=O)C5=O)CC3)CC2)CC1 (centres undefined)	Activity [10]: inactive; Emax [6]: 99.7%; Activity [11]: 100%; Activity [12]: Active; Activity [8]: inactive; Activity [13]: Active; EC50 [9]: 2.93 nM; Activity [14]: inactive; Activity [15]: inactive; Activity [16]: inactive
58.6	46.1	95	Nc1ncnc2c1c(-c1ccc(Oc3ccccc3)cc1)nn2C1CCN(Cc2ccc(C#CC3CCN(c4cccc5c4C(=O)N(C4CCC(=O)NC4=O)C5=O)CC3)nc2)CC1 (centres undefined)	Activity [8]: Active
31.3			Nc1ncnc2c1c(-c1ccc(Oc3ccccc3)cc1)nn2C1CCN(CC2CN(CC3CN(c4cccc5c4C(=O)N(C4CCC(=O)NC4=O)C5=O)C3)C2)CC1 (centres undefined)	
75.7	63.3	92.4	Nc1ncnc2c1c(-c1ccc(Oc3ccccc3)cc1)nn2C1CCN(CCOCCOCC(=O)Nc2ccc3c(c2)C(=O)N(C2CCC(=O)NC2=O)C3=O)CC1 (centres undefined)	
36.2			Nc1ncnc2c1c(-c1ccc(Oc3ccccc3)cc1)nn2C1CCN(CC2CN(CC3CCN(c4cccc5c4C(=O)N(C4CCC(=O)NC4=O)C5=O)CC3)C2)CC1 (centres undefined)	
71.7	26.9	97.8	Nc1ncnc2c1c(-c1ccc(Oc3ccccc3)cc1)nn2C1CCN(C(=O)c2ccc(N3CCN(c4ccc5c(c4)C(=O)N(C4CCC(=O)NC4=O)C5=O)CC3)nc2)CC1 (centres undefined)	Activity [8]: Active
47.4			Nc1ncnc2c1c(-c1ccc(Oc3ccccc3)cc1)nn2C1CCN(C(=O)c2ccc(N3CCN(CC#Cc4ccc5c(c4)C(=O)N(C4CCC(=O)NC4=O)C5=O)CC3)nc2)CC1 (centres undefined)	
67.5	7.27	97.6	Nc1ncnc2c1c(-c1ccc(Oc3ccccc3)cc1)nn2C1CCN(C(=O)CN2CCN(CC3CN(c4cccc5c4C(=O)N(C4CCC(=O)NC4=O)C5=O)C3)CC2)CC1 (centres undefined)	Activity [3]: Active; Activity [5]: Active; Emax [6]: 99.7%; EC50 [9]: 9.06 nM
41.8			Nc1ncnc2c1c(-c1ccc(Oc3ccccc3)cc1)nn2C1CCN(C(=O)CCCN2CCN(C(=O)CCC(=O)Nc3ccc4c(c3)C(=O)N(C3CCC(=O)NC3=O)C4=O)CC2)CC1 (centres undefined)	
55			Nc1ncnc2c1c(-c1ccc(Oc3ccccc3)cc1)nn2C1CCN(C(=O)CCCN2CCN(CCOCCOCC(=O)Nc3ccc4c(c3)C(=O)N(C3CCC(=O)NC3=O)C4=O)CC2)CC1 (centres undefined)	
57.8			Nc1ncnc2c1c(-c1ccc(Oc3ccccc3)cc1)nn2C1CCN(C(=O)CN2CCC(N3CCN(CC#Cc4ccc5c(c4)C(=O)N(C4CCC(=O)NC4=O)C5=O)CC3)CC2)CC1 (centres undefined)	
